Several values for one entry are separate records, joined by “and”; a condition that tells them apart may be missing. Equal values may be shown once. Entries after “also recorded” stand apart in the source; their conditions may differ.
Columns and labels:
[1] = system: fibrotic lung tissue of bleomycin-injured mice; assay: Biodistribution study for selectivity of allysine-reactive Gd probes (Gd:Eu ratio by ICP-MS); assay type: in vivo, mouse; conditions: 30 minutes after injection, 100 nmol/g, Eu-DOTA co-injected, n = 5
Experimental: C57Bl/6 adult male mice at 8 weeks of age (Jackson Laboratories, Barr Harbor, ME) received a single intratracheal dose of bleomycin, 1 units/kg body weight (50 μL total volume) (Fresenius Kabi, Lake Zurich, Il) as previously described in Desogere, P., et al. Optimization of a Collagen-Targeted PET Probe for Molecular Imaging of Pulmonary Fibrosis. J Nuc Med 58, 1991-1996 (2017).
Imaging and Biodistribution Study for Selectivity of Allysine-Reactive Probes In Vivo:
Bleomycin-injured mice at 14 days after injury were sedated and then injected with Compound 19, Compound 20, Gd-CHyd (Akam, E. A., et al. Improving the reactivity of hydrazine-bearing MRI probes for in vivo imaging of lung fibrogenesis. Chemical Science 11, 224-231 (2020)) formulated to contain an equal concentration of Eu-DOTA as a non-binding control probe. […] Each sample was analyzed by ICP-MS for gadolinium and europium content, and the lungs were also assessed for hydroxyproline content. […] All animals were dosed via tail vein injection at 100 nmol/g body weight from 30 mM solutions of gadolinium probes with 30 mM Eu-DOTA as determined by ICP-MS. […] Animals were euthanized 90 min post injection and their organs and tissues were harvested and counted using a gamma counter. […] The animals were euthanized 90 min post injection and their organs and tissues were counted using a gamma counter. […]

[2] = Reaction rates with 2-formylpyridine measured by HPLC-ICP-MS (Method A); assay type: physicochemical; conditions: Method a: 2-formylpyridine 1000 μM, probe 25 μM, pH 7.40 PBS
Experimental: Quantitative Measurement of Reaction Rates with Aldehydes: Method A: Reaction Rates of Compounds with 2-Formylpyridine Measured by HPLC-ICP-MS
Reactivity of aldehyde-binding probes were assessed in pH 7.40 phosphate-buffered saline under pseudo-first order conditions with 2-formylpyridine concentration of 1000 μM and probes at 25 μM. Concentrations of unreacted starting material and condensation products were determined at 12 min time intervals based on their relative integrations. The values were fit to a standard first order rate constant linear equation and the rate constant was extracted from the slope.

[3] = Biodistribution of manganese in healthy mice 60 minutes post-injection; assay type: in vivo, mouse; conditions: 0.1 mmol/kg i.v.
Excerpt: To meet these requirements, the probes Mn-12, Mn-13 and Mn-14 were designed based on the stable Mn-1,4-DO2A chelate. […] This combination of stability, turn-on relaxivity, and low uptake in healthy liver indicate that Mn-12 is quite promising as a novel probe for liver fibrogenesis detection.

[4] = biological target: T1, BSA-ALD (oxidized bovine serum albumin containing allysine aldehyde groups) (Bos taurus, UniProt P02769); assay: Relaxivity measurements with BSA-Ald; assay type: binding; conditions: 37° C.; for r1, +BSA-Ald / r1, Bound to BSA-Ald: 1.4 T; for r1, +BSA-Ald: BSA-Ald 10 mg/mL; for r1, Bound to BSA-Ald: protein-bound species after NaBH3CN and ultrafiltration
T1 construct: made in house; host or cells: no expression host: BSA oxidised chemically with sodium ascorbate, ferric chloride and H2O2, then desalted on PD-10
T1 sequence (P02769 25-607): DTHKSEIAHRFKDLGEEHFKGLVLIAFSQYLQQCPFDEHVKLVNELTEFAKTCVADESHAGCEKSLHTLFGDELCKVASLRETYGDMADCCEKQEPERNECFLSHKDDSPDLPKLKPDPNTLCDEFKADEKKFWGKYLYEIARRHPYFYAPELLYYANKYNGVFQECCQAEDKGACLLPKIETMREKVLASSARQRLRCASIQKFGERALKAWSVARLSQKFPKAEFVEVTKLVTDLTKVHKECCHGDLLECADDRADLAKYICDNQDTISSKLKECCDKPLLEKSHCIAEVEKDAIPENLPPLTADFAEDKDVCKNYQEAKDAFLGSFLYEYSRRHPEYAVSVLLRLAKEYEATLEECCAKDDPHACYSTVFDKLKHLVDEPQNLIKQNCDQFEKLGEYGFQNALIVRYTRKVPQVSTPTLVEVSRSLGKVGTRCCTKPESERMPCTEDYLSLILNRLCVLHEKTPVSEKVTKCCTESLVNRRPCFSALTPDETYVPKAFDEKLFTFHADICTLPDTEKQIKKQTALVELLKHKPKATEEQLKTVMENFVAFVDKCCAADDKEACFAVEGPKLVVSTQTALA
Experimental: Preparation of Allysine Containing Bovine Serum Albumin, BSA-ALD:
To a solution of bovine serum albumin (BSA) (100 mg) dissolved in phosphate buffered saline (4 mL, pH 7.4, 0.25 mM), sodium ascorbate (20 mg), ferric chloride (120 μL, 10 mM) and 20 μL H2O2 (30% w) were added. The reaction was stirred at 37° C. for 24 hours, and sodium ascorbate (20 mg) was added repeatedly every 8 hours. After the reaction, protein was purified using PD-10 Sephadex G25 desalting columns (GE Healthcare), eluted with PBS. Protein concentration was assessed using the ‘BCA Protein Assay Kit’ (Thermo Scientific). Protein carbonyl concentration was determined by ‘Protein Carbonyl Content Assay Kit’ (Sigmal-Aldrich).
(§1) Alternatively, preparation of BSA^Ald and binding of Gd^3+ probe to protein was carried out according to modified procedures. To a solution of bovine serum albumin (BSA) (100 mg) dissolved in phosphate buffered saline (4 mL, pH 7.4, 0.25 mM) was added sodium ascorbate (20 mg), ferric chloride (120 μL, 10 mM) and 20 μL H2O2 (30% w). The reaction was stirred at 37° C. for 24 h, and sodium ascorbate (20 mg) was added repeatedly every 8 h. After 24 h, the protein was purified using PD-10 Sephadex G25 desalting columns (GE Healthcare), eluted with PBS. Protein concentration was assessed using the ‘Micro BCA Protein Assay Kit’ (Thermo Scientific, 23235). Protein carbonyl concentration was determined by ‘Protein Carbonyl Content Assay Kit’ (Sigma-Aldrich, MAK094-1KT). […] The protein solutions were kept at a concentration of 20 mg/mL for further use.
(§2) BSA-ALD (10 mg/mL) or BSA (10 mg/mL) were treated for 24 hours at 37° C. with the corresponding Gd or Mn complex at a range of concentrations (0.01-0.2 mM), with a total volume of 300 μL maintained for all samples. After 24 hours, an aliquot of the solution (50 μL) was used for longitudinal (T1) relaxation measurements, recorded using a Bruker mq60 Minispec at 1.41 T and 37° C. Longitudinal (T1) relaxation times were measured via an inversion recovery experiment using 10 inversions of duration ranging between 0.05×T1 and 10×T1. Solutions (concentration range: 0.1 mM-1.0 mM) in PBS were run in parallel. To measure the relaxivity of BSA-bound species, sodium cyanoborohydride (10 mg) was added to the solution to irreversibly bind the probe to the protein. After a further 2h incubation at 37° C., protein-bound and protein-free solutions were separated by ultrafiltration. Then 200 μL PBS was added to the residue to dissolve the protein. Longitudinal (T1) relaxation times for the bounded species were measured using a Bruker mq60 Minispec at 1.41 T and 37° C. After the measurement, concentration of corresponding metal ion (Gd/Mn) in the residue and filter were both determined using an Agilent 8800 ICP-MS system. Relaxivity (r1) was determined from the slope of a plot of 1/T1 vs metal concentration for 5 concentrations.

[5] = Reaction rates with butyraldehyde measured by HPLC-ICP-MS (Method B); assay type: physicochemical; conditions: Method b: butyraldehyde 100 μM, probe 25 μM, pH 7.40
Experimental: Method B: Reaction Rates of Compounds with Butyraldehyde Measured by HPLC-ICP-MS
The reactions were conducted in pH 7.40 phosphate-buffered with butyraldehyde concentration of 100 μM and hydrazine probes at 25 μM. Concentrations of unreacted starting material and condensation products were determined at 10 min time intervals over 2 hours based on their relative integrations. The values were fit to a standard first order rate constant linear equation and the rate constant was extracted from the slope.
Reaction with Butyraldehyde Monitored by HPLC-ICP-MS
Reactions were conducted in pH 7.4 phosphate-buffered saline with butyraldehyde concentration of 100 μM and hydrazine probes at 25 μM. Concentrations of unreacted starting material and condensation products were determined based on their relative integrations at 12 min time intervals over 2 hours.

[6] = Relaxivity measurements in PBS; assay type: physicochemical; conditions: 1.4 T, 37° C.
Experimental: as §2

[7] = biological target: bovine serum albumin (BSA) (Bos taurus, UniProt P02769); assay: Relaxivity measurements with BSA; assay type: binding; conditions: 1.4 T, 37° C., BSA 10 mg/mL
Sequence of bovine serum albumin (BSA) (P02769 25-607): as above
Experimental: as §2

[8] = system: bleomycin-injured mice (pulmonary fibrosis); assay: EGCG treatment of bleomycin-injured mice monitored with Gd-9 MRI; assay type: in vivo, mouse
Experimental: Gd-9 is a Gd-DOTA derivative with two hydrazine arms synthesized by amide coupling of two tBu-piperazin-1-ylcarbamate groups to 1,4,7,10-tetraazacyclododecane-1,4-bis(tBu-acetate)-4,10-bis(glutaric acid 1-tBu ester), followed by acid deprotection and gadolinium complexation. C57Bl/6 adult male mice at 8 weeks of age received a single intratracheal dose of bleomycin, 1 U/kg body weight (50 μL total volume) as previously described. Pair-wise imaging study of GdCHyd and Gd-9 was carried out in mice at day 14 post bleomycin injury on a 4.7 T MRI with a dose of 100 μmol/kg of each probe. For the treatment study, mice were imaged first at day 10 post bleomycin injury, then treated daily with oral gavage of either epigallocatechin gallate (EGCG, 100 mg/kg) or PBS (vehicle) for 11 days. At day 21 post bleomycin injury, the animals were imaged again. MRI consisted of T1-weighted UTE (TR/TE/flip angle=4 ms/0.011 ms/15°) images acquired prior to and up to 30 minutes following intravenous administration of Gd-9 ([…]). Following the second imaging session, animals were euthanized (60 minutes post injection), and lung tissues were removed for further analysis.
The dual hydrazine probe Gd-9 was first compared to GdCHyd in a head-to head comparison in vivo. Mice were imaged 14 days after bleomycin injury first with Gd-CHyd and then 4 h later with Gd-9. […] Gd-9 was nexted used to monitor response to EGCG treatment in bleomycin-injured mice. Mice were imaged at 10 days after bleomycin injury and then the mice were treated with EGCG (100 mg/kg) or PBS (vehicle) for 11 days, and then the mice were imaged again (FIG. 14).

[9] = system: ECM proteins from fibrotic rat liver; assay: Relaxivity measurements in ECM; assay type: binding
Experimental: Liver fibrosis was induced in male Sprague Dawley rats by ligation of the common bile duct (CD®, Charles River Labs, Wilmington, MA). Ten days after common bile duct ligation, the fibrotic liver was harvested and sequential extractions were performed using the CNMCS (Cytosol/Nucleus/Membrane/Cytoskeleton) Compartmental Protein Extraction kit (Cytomol, Union City, CA) according to manufacturer's instructions. In brief, frozen tissues (150-200 mg) were homogenized and with solvents provided in the kit to sequentially to remove: cytosolic proteins, nuclear proteins, membrane proteins, and cytoskeletal proteins, leaving a final insoluble fraction enriched for ECM proteins.
Relaxivity Measurements in ECM
The enriched ECM proteins from 800 mg of fibrotic rat liver were suspended in 1 ml PBS. The ECM protein concentration was about 10% (5 mg in a 50 μL aliquot determined by weight after lyophilization). An aliquot of the solution (50 μL) was treated for 2 h at 37° C. with the corresponding molecular probe at a range of concentrations (0.01-0.1 mM) and then longitudinal (T1) relaxation measurements was recorded using a Bruker mq60 Minispec at 1.41 T and 37° C. For the blocking experiment with N2H4, a 100 fold-excess of N2H4 referred to the concentration of molecular probe was added to the solution before the incubation. Longitudinal (T1) relaxation times were measured via an inversion recovery experiment using 10 inversions of duration ranging between 0.05×T1 and 10×T1. Relaxivity (r1) was determined from the slope of a plot of 1/T1 vs metal concentration for 4 concentrations.

BSA-ALD = biological target: T2, BSA-ALD (Bos taurus, UniProt P02769); assay: Binding yield measurements of Gd^3+ complex with BSA^Ald (ultrafiltration, ICP-MS); design: species or system bovine; conditions: pH 7.4, PBS, 37° C., 12 h, ultrafiltration 5,000 Da cut-off
T2 construct: made in house; host or cells: no expression host: BSA oxidised chemically with sodium ascorbate, ferric chloride and H2O2, then desalted on PD-10
T2 sequence (P02769 25-607): as above
Experimental: FIG. 48. […] Binding concentration of the probes to BSA^Ald (pH 7.4, PBS, 37° C., 12 h) as determined by ICP-MS following an ultrafiltration (5,000 Da cut-off) to separate the protein-bound probe from the unbound probe. Slope gives the binding yield.
as §1

[10] = EGCG 100 mg/kg oral gavage daily for 11 days vs vehicle

NOCC(=O)NCCN(CCNC(=O)CCC1C(=O)[O][Gd]23[O]C(=O)CN4CCN(CCN1CCN(CC4)CC(=O)[O]2)CC(=O)[O]3)CCNC(=O)CON (centres unmarked) [Compound 19]
Gd:Eu ratio, Left lung [1]: 1.4 ± 0.1
Gd:Eu ratio, Right lung [1]: 1.3 ± 0.2
k (second order rate constant) [2]: 0.55 M⁻¹ s⁻¹

CCCCN1CCN(CCCC(=O)N2CCN(N)CC2)CCN(CC(=O)[O-])CCN(CC(=O)[O-])CC1.[Mn+2] [Mn-13]
Mn liver levels in healthy mice [3]: high Mn liver levels; also recorded: elevated levels
r1, +BSA-Ald [4]: 2.3 mM⁻¹ s⁻¹
r1, Bound to BSA-Ald [4]: 6.2 mM⁻¹ s⁻¹
k (second order rate constant) [5]: 1.9 M⁻¹ s⁻¹
r1, PBS [6]: 1.6 mM⁻¹ s⁻¹
r1, +BSA [7]: 1.9 mM⁻¹ s⁻¹

O=C(O[C@@H]1Cc2c(O)cc(O)cc2O[C@@H]1c1cc(O)c(O)c(O)c1)c1cc(O)c(O)c(O)c1 [EGCG, epigallocatechin gallate]
lung to muscle ΔCNR after Gd-9 injection, day 21 vs day 10 ([8]; EGCG 100 mg/kg oral gavage daily for 11 days): significantly decreased
lung allysine content [8, 10]: significantly reduced
lung hydroxyproline (total collagen) [8, 10]: reduced

NN1CCN(C(=O)CCC(C(=O)[O-])N2CCN(CC(=O)[O-])CCN(CC(=O)[O-])CCN(C(CCC(=O)N3CCNCC3)C(=O)[O-])CC2)CC1.[Gd+3] (centres unmarked) [Gd-11]
r1, +BSA-Ald [4]: 7.6 mM⁻¹ s⁻¹
r1, Bound to BSA-Ald [4]: 13.7 mM⁻¹ s⁻¹ and 13.8 mM⁻¹ s⁻¹
increase of r1 in BSA^Ald compared to PBS value ([4]; 1.41 T): 23%
r1, PBS [6]: 6.2 mM⁻¹ s⁻¹
relaxivity in ECM ([9]; PBS, pH 7.4, 2 h, 37° C., 1.41T): 6.7 mM⁻¹ s⁻¹
relaxivity in ECM with 100-fold excess of hydrazine ([9]; aldehydes blocked with N2H4): 6.1 mM⁻¹ s⁻¹
r1, +BSA [7]: 6.2 mM⁻¹ s⁻¹
equilibrium binding to BSA^Ald (binding yield) (BSA-ALD): 19.2%

Reference: patent US20240285808A1, “MOLECULAR PROBES FOR IN VIVO DETECTION OF ALDEHYDES” (The General Hospital Corporation, priority 2021, published 2024)
